Results as given in ChEMBL document CHEMBL1777704, “Identification and synthesis of N'-(2-oxoindolin-3-ylidene)hydrazide derivatives against c-Met kinase” (Bioorg Med Chem Lett, 2011).
pIC50: −log10 of the molar value.

These molecules were tested against Hepatocyte growth factor receptor (Homo sapiens, UniProt P08581) (assay: Inhibition of purified c-Met using poly(glu,tyr) as substrate after 60 mins by ELISA).
Hepatocyte growth factor receptor, sequence (P08581 whole entry): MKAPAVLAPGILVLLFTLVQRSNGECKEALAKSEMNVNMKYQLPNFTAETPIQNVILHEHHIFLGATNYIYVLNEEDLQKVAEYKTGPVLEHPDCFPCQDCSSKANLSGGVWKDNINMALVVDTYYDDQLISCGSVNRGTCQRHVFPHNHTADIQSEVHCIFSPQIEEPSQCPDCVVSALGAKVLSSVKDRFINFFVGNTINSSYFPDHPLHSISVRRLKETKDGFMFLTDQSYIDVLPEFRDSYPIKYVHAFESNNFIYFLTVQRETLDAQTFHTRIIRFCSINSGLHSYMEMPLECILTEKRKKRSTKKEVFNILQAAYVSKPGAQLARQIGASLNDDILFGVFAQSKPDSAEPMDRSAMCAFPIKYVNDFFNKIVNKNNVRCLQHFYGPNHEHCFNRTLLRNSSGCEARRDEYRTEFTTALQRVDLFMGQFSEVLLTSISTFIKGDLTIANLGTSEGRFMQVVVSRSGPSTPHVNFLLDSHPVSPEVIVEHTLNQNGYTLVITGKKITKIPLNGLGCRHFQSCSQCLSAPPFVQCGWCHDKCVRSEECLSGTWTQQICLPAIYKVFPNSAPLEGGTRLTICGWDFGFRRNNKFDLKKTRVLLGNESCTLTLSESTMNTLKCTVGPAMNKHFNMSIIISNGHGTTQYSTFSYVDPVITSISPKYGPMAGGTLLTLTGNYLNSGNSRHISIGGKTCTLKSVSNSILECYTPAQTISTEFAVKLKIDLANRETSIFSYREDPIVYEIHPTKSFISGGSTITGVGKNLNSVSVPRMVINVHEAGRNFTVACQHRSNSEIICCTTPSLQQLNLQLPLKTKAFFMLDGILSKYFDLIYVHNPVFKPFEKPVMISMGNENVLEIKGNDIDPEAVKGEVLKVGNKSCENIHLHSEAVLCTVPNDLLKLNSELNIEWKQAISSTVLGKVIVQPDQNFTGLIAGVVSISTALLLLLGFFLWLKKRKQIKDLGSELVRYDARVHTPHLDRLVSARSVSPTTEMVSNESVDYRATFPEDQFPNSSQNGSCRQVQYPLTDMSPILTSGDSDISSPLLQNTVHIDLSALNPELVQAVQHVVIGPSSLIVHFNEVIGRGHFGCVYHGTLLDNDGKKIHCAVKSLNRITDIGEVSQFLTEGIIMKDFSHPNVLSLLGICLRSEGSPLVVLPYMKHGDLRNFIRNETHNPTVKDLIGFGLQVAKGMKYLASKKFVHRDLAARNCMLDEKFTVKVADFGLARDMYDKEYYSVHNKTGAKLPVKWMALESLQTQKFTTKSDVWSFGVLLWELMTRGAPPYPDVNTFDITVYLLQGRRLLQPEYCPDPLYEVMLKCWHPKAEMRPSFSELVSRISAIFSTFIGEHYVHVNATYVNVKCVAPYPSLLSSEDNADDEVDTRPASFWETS

`CN1C(=O)/C(=N\NC(=O)c2cccc(C(=O)N/N=C3/C(=O)N(C)c4ccccc43)c2)c2ccccc21` and `CN1C(=O)/C(=N\NC(=O)c2ccc([N+](=O)[O-])cc2)c2ccccc21` are within 0.2 log units of each other in pIC50: 4.99 for the first, 4.91 for the second.

First: Cc1cccc(C(=O)Nc2ccc(C(=O)N/N=C3\C(=O)Nc4ccccc43)cc2)c1
Second: O=C1Nc2ccccc2C1=NNC(=O)c1ccc([N+](=O)[O-])cc1
The pIC50 of the first is 1.34 log units higher: 5.89 for the first, 4.55 for the second.

Compared with `COc1ccc(C(=O)COC(=O)c2ccc3c(c2)C(=O)N(c2ccc(C(C)=O)cc2)C3=O)cc1`, `Cc1ccc(NC(=O)CN2C(=O)/C(=N\NC(=O)c3ccc(N)cc3)c3ccccc32)cc1` is 0.63 log units lower in pIC50: 5.43 for the first, 4.80 for the second. The first is the more potent here.

Going from `O=[N+]([O-])c1cc(-c2ccc(/C=N\n3cnnc3N/N=C/c3ccc(-c4ccc(Cl)c([N+](=O)[O-])c4)o3)o2)ccc1Cl` to `O=C(CCCCCC(=O)N/N=C/c1cc2c(cc1[N+](=O)[O-])OCO2)N/N=C/c1cc2c(cc1[N+](=O)[O-])OCO2`, the pIC50 rises from 5.48 to 6.11 (0.63 log units).

`O=C1Nc2ccccc2/C1=N/NC(=O)c1cc2ccccc2cc1O` and `O=C(N/N=C1\C(=O)N(CN2CCOCC2)c2ccc(Br)cc21)c1ccccc1` are within 0.2 log units of each other in pIC50: 5.37 for the first, 5.46 for the second.

For `COc1ccc(C(=O)N/N=C2\C(=O)N(CN3CCOCC3)c3ccc(Br)cc32)cc1`, the pIC50 was 5.66.
